Assay results published in paper PMC6657216, “Defining the Contribution of CYP1A1 and CYP1A2 to Drug Metabolism Using Humanized CYP1A1/1A2 and Cyp1a1/Cyp1a2 Knockout Mice” (Drug Metabolism and Disposition, 2019).
Several values for one entry are separate records, joined by “and”; a condition that tells them apart may be missing. Equal values may be shown once. Read-outs that look alike come from different tables or passages of the source.

Assays:
liver microsomes = test: Constitutive EROD and MROD activity in liver microsomes of WT, Cyp1a KO and hCYP1A1/1A2 mice; format: in vitro ADME, mouse
Protocol: A mixture of ER (0.93 μM) or MR (0.46 μM) and liver microsomes (0.004–0.27 mg protein/ml) in 100 mM potassium phosphate buffer (pH 7.4) supplemented with MgCl2 (3.3 mM) was incubated at 37°C for 5 minutes before the reaction was initiated by injection of NADPH (final concentration, 1.2 mM). […] Activities in duodenum, ileum, jejunum, colon, lung, kidney, spleen, heart, brain, and testis microsomes were measured as described earlier except for the following adjustments: MR concentration was 1 μM, concentration of total microsomal protein in the reaction was in the range of 0.07–0.43 mg/ml, and amount of resorufin added to calculate the reaction product concentration was 40 pmol.

Recombinant rat CYP1A1 = test system: Recombinant rat CYP1A1; design: method as in Namkung et al., 1988; conditions: recombinant rat enzymes; ref Namkung et al., 1988; cited from earlier work
[1] = test system: liver microsomes from TCDD-treated hCYP1A1/1A2 mice; test: EROD in liver microsomes from TCDD-treated hCYP1A1/1A2 mice: individual contribution of CYP1A1, CYP1A2 and non-Cyp1a; format: in vitro ADME, mouse
Protocol: (§1) Protein enzyme/concentrations were 3.46 pmol/ml for recombinant human CYP1A1, 10.8 pmol/ml for recombinant human CYP1A2, 0.05 mg protein/ml for liver microsomes from TCDD-treated hCYP1A1/1A2 mice, and 0.25 mg protein/ml for liver microsomes from TCDD-treated Cyp1 KO mice and vehicle-treated hCYP1A1/1A2 mice. Where needed, total protein concentration in the reaction mixtures was adjusted using Control Bactosomes (Cypex), so all reactions (including those with the recombinant cytochrome P450s) were carried out at a total protein concentration of 0.25 mg protein/ml. Generation of fluorescent product was registered in a kinetic mode (excitation filter, 530 nm; emission filter, 584 nm). Slopes of the linear part of the kinetic curves were calculated using Ascent Software version 2.4.1 (Labsystems). For each well with the reaction medium, there was a control well containing the reaction mixture with resorufin (40 pmol). Before addition of NADPH to the reaction wells, fluorescence was recorded both from the reaction and from the control wells. The average fluorescence was calculated, and the difference between wells with and without resorufin was used for the conversion of the relative fluorescence units to the picomoles of the reaction product.

recombinant human CYP1A1 [2] = target: T1, recombinant human CYP1A1 (Homo sapiens, UniProt P04798); test: EROD by recombinant human CYP1A1 with and without quinidine; conditions: for Kd: EROD, rCYP1A1
T1 sequence (P04798 1-512): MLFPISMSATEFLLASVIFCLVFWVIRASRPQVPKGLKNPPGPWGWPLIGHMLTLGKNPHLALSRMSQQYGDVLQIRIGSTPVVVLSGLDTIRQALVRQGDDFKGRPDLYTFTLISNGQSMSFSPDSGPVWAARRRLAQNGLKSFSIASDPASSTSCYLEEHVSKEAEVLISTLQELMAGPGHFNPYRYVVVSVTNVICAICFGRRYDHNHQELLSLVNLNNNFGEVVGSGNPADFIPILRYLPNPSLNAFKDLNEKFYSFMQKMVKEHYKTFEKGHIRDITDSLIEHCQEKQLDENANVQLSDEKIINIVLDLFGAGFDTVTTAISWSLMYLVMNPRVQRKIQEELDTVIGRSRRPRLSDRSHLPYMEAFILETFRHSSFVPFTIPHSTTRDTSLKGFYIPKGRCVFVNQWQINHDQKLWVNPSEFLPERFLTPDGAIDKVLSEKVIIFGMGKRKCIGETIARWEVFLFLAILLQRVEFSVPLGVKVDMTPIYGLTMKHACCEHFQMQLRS
Protocol: (§2) Where needed, total protein concentration in the reaction mixtures was adjusted using Control Bactosomes (Cypex), so all reactions (including those with the recombinant cytochrome P450s) were carried out at a total protein concentration of 0.25 mg protein/ml. […] Slopes of the linear part of the kinetic curves were calculated using Ascent Software version 2.4.1 (Labsystems). For each well with the reaction medium, there was a control well containing the reaction mixture with resorufin (40 pmol). Before addition of NADPH to the reaction wells, fluorescence was recorded both from the reaction and from the control wells. The average fluorescence was calculated, and the difference between wells with and without resorufin was used for the conversion of the relative fluorescence units to the picomoles of the reaction product.

recombinant human CYP1A2 [3] = target: T2, recombinant human CYP1A2 (Homo sapiens, UniProt P05177); conditions: read-out: Km ± S.E.; EROD; rCYP1A2
T2 sequence (P05177 1-516): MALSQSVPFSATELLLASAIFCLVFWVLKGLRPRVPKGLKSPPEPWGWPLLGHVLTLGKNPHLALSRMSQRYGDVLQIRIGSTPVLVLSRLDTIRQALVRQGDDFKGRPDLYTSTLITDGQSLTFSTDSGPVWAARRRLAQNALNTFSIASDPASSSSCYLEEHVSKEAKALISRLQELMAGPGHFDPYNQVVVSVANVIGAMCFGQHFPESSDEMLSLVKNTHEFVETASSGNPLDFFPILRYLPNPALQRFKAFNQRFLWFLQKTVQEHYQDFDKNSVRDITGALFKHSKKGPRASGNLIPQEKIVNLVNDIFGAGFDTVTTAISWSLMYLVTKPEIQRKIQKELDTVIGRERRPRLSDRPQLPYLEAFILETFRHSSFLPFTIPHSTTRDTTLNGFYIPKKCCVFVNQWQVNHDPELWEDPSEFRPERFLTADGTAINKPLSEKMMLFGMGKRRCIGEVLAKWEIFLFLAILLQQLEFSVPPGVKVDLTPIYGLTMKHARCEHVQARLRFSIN
Protocol: as §1

recombinant human CYP1A1 [4] = target: T1, recombinant human CYP1A1; design: host or cells: bacteria (membrane / 'bacterial microsomes' preparation); method as in Liu et al., 2004; conditions: recombinant human enzymes; ref Liu et al., 2004; cited from earlier work
[5] = test system: liver microsomes from TCDD-treated Cyp1a KO mice (non-Cyp1a component); test: EROD in liver microsomes from TCDD-treated Cyp1a KO mice with and without quinidine
Protocol: as §1

recombinant human CYP1A2 [6] = target: T2, recombinant human CYP1A2; test: MROD by recombinant human CYP1A2, inhibition by quinidine; conditions: MROD, rCYP1A2
Protocol: (§3) Slopes of the linear part of the kinetic curves were calculated using Ascent Software version 2.4.1 (Labsystems).
as §2

[7] = test system: liver microsomes from TCDD-treated hCYP1A1/1A2 mice; test: MROD in liver microsomes from TCDD-treated hCYP1A1/1A2 mice: individual contribution of CYP1A1, CYP1A2 and non-Cyp1a; format: in vitro ADME, mouse
Protocol: as §1

[8] = test system: liver microsomes from TCDD-treated Cyp1a KO mice (non-Cyp1a component); test: MROD in liver microsomes from TCDD-treated Cyp1a KO mice with and without quinidine
Protocol: as §1

recombinant human CYP1A1 [9] = target: T1, recombinant human CYP1A1; test: MROD by recombinant human CYP1A1, inhibition by quinidine
Protocol: as §3, §2

[10] = liver microsomes from TCDD-treated hCYP1A1/1A2 mice, nonlinear regression eq. 7
[11] = quinidine 200 μM, low concentration of ER
[12] = 200 μM quinidine, increased substrate concentration
[13] = 200 μM quinidine, low concentrations of MR
[14] = absence of inhibitor, low substrate concentrations
[15] = liver microsomes from TCDD-treated hCYP1A1/1A2 mice, nonlinear regression eq. 8

## CCOc1ccc2nc3ccc(=O)cc-3oc2c1 [ER, 7-ethoxyresorufin]
Liver microsomes; liver microsomes from Cyp1a KO mice, untreated
  decrease of EROD activity relative to WT animals: 22%
Liver microsomes; liver microsomes from hCYP1A1/1A2 mice
  constitutive EROD activity relative to WT: 155%
Recombinant rat CYP1A1
  EROD activity of CYP1A1 compared to CYP1A2 (times more active): ~59 times
[1]; absence of quinidine, 1 μM ER
  CYP1A1 contribution to EROD: 70%
[1]; absence of quinidine, 6 μM ER
  CYP1A2 contribution to EROD: ~45%
[1]; absence of quinidine, 6 μM substrate
  CYP1A1 contribution to EROD: ~51%
[1]; absence of quinidine, low (10 pM) substrate concentration
  CYP1A1 contribution to EROD: ~94%
[1]; absence of quinidine, low substrate concentration
  CYP1A2 contribution to EROD: ~4.8%
[1]; [10]
  Vmax for CYP1A1, EROD: 2800 pmol/min/mg protein
  Vmax for CYP1A2, EROD: 1900 pmol/min/mg protein and 1909 pmol/min/mg protein
[1]; [11]
  CYP1A1 contribution to EROD: ~22%
  CYP1A2 contribution to EROD: 70%
  non-CYP1A contribution to EROD: 8%
Recombinant human CYP1A1 [2]; read-out: Ks1 ± S.E., productive enzyme-substrate complex
  Kd: 90 ± 8 nM
Recombinant human CYP1A1 [2]; read-out: Ks2 ± S.E., inhibitory enzyme-substrate complex
  Kd: 11000 ± 1000 nM
Recombinant human CYP1A1 [2]; recombinant CYP1A1, Vmax 3300 at 71 pmol/mg protein
  kcat: 0.783 s⁻¹
Recombinant human CYP1A1 [2]; recombinant CYP1A1, enzyme concentration 71 pmol/mg protein
  Vmax: 3300 pmol/min/mg protein
Recombinant human CYP1A2 [3]
  Km: 1.2 µM
Recombinant human CYP1A1 [4]
  EROD activity of CYP1A1 compared with CYP1A2 (times more active): ~2.8 times
[5]; read-out: Ks1 ± S.E.
  Kd: 830 ± 40 nM
[5]; read-out: Ks2 ± S.E.
  Kd: 13000 ± 1500 nM

## COc1ccc2nc3ccc(=O)cc-3oc2c1 [MR, 7-methoxyresorufin]
Liver microsomes; hCYP1A1/1A2 mouse line liver microsomes
  MROD activity compared with WT animals: unchanged
Liver microsomes; liver microsomes from Cyp1a KO mice
  decrease of MROD compared with WT animals: approximately 90%
Recombinant rat CYP1A1
  MROD activity of CYP1A1 compared to CYP1A2 (times less active): ~14 times
Recombinant human CYP1A2 [6]; read-out: Ks1 ± S.E.
  Kd: 580 ± 80 nM
Recombinant human CYP1A2 [6]; read-out: Ks2 ± S.E.
  Kd: 12000 ± 3500 nM
[7]
  Non-Cyp1a contribution to MROD: ≤ 1.5%
[7]; [12]
  CYP1A1 contribution to MROD: ~9%
  CYP1A2 contribution to MROD: ~90%
[7]; [13]
  CYP1A1 contribution to MROD: less than 1%
  CYP1A2 contribution to MROD: ~98%
[7]; absence of inhibitor, 6 μM MR
  CYP1A1 contribution to MROD: ~18%
  CYP1A2 contribution to MROD: ~81%
[7]; [14]
  CYP1A1 contribution to MROD: 49%
  CYP1A2 contribution to MROD: 50%
[7]; [15]
  Vmax for CYP1A1, MROD: 1600 pmol/min/mg protein
  Vmax for CYP1A2, MROD: 2000 pmol/min/mg protein and 1969 pmol/min/mg protein
[8]; read-out: Ks1 ± S.E.
  Kd: 960 ± 180 nM
[8]; read-out: Ks2 ± S.E.
  Kd: 3400 ± 800 nM
Recombinant human CYP1A1 [4]
  MROD activity of CYP1A1 compared with CYP1A2 (times less active): ~5.8 times
Recombinant human CYP1A1 [9]; read-out: Ks1 ± S.E., rCYP1A1
  Kd: 470 ± 70 nM
Recombinant human CYP1A1 [9]; read-out: Ks2 ± S.E., rCYP1A1
  Kd: 1300 ± 180 nM
